Source: US7291611B2, “Benzimidazolidinone derivatives as muscarinic agents” (ACADIA Pharmaceuticals Inc., priority 2001, dated 2007)
Each block holds one compound with its values, some of them ahead of it.

Key:
dopamine receptors = conditions: Shannon et al.; cited from earlier work
[1] = human, in vivo; cited from earlier work
mice [2] = assay: Catalepsy (rod test) in mice; format: in vivo; conditions: mice (FIG. 5)
Experimental: (§1) Male Non-Swiss Albino mice (Harlan Sprague-Dawley) were housed (4 mice/cage) in rooms with temperature and humidity controlled and water and food (Harlan Teklad) freely available. Mice were kept on a 12-hr light:dark cycle.
A custom-built 8-mm rod that is raised 3.5 cm from the lab benchtop was used. 61KS19 (10 mg/kg) or haloperidol (1 mg/kg) were administered i.p. 60 min before the start of the session. The forepaws of each animal is placed on the rod and the time to step down is measured. If the animal steps off immediately, another attempt is made until the animal stays on for more than 10 sec or 10 attempts have been made. A maximum of 2 min is allowed at which time the animal is taken away from the rod and returned to the homecage. Each dose or dose combination was tested in a separate group of animals (n=6). Averages and standard errors were calculated and compared using an ANOVA and post-hoc Dunnett's t-tests.

mice [3] = assay: Spontaneous locomotor activity in mice; format: in vivo; conditions: 10 mg/kg i.p., mice (FIG. 1)
Experimental: as §1
(§2) Plastic 20×20×30 cm activity cages were equipped with photocell beams (AccuScan Instruments). For spontaneous activity, 61KS19 (1, 3 and 10 mg/kg) was administered alone i.p. 30 min before the session. For hyperactivity experiments, mice were treated with 0.3 mg/kg dizocilpine, 3.0 mg/kg d-amphetamine or 3.0 mg/kg scopolamine i.p. 15 min before the session (15 min after 61KS19). Locomotor data were collected during a 15 min session without habituation in a lit room. Each dose combination was tested in a separate group of animals (n=8). Distance traveled (cm) was calculated and averaged followed by ANOVA and post-hoc Dunnett's t-test comparisons.

M4 muscarinic receptor = target: T1, M4 muscarinic receptor (Homo sapiens, UniProt P08173); assay: R-SAT functional assay, muscarinic M4 receptor; format: cell-based
T1 construct: expressed in transfected cells; host or cells: NIH-3T3 cells (ATCC CRL 1658)
T1 sequence (P08173 1-479): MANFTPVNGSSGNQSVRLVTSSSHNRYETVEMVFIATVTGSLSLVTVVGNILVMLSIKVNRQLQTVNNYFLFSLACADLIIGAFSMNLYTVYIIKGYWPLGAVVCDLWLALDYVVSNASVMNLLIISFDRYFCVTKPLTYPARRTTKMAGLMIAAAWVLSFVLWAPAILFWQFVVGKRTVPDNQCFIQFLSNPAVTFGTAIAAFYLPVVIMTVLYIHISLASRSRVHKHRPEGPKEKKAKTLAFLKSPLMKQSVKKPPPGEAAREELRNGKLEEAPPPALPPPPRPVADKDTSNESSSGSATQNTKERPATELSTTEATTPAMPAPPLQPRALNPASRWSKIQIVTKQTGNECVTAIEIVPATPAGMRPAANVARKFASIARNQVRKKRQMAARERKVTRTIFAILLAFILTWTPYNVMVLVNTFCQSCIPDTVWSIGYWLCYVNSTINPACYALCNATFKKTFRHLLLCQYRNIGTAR
Experimental: (§3) The M1 and M4 muscarinic receptor subtypes were cloned substantially as described by Bonner et al., (1987) Science […] p. 527 and Bonner et al, (1988) Neuron 1, p. 403. R-SAT assays were carried out substantially as described in U.S. Pat. No. 5,707,798 and by Braüner-Osbome, H. B. and Brann, M. R. (1995), Eur. J. Pharmacol. 295:93-102. NIH-3T3 cells (available from the American Type Culture Collection as ATCC CRL 1658) were transfected with plasmid DNA encoding the m1 and m4 receptors and plasmid DNA encoding β-galactosidase. Transfected cells were grown in the presence of between 1 nM and 40 μM of the test compound for 5 days. On day 5, the cells were lysed using 0.5% nonidet-P and β-galactosidase expression was quantified using the chromogenic substrate o-nitrophenyl-p-D-galactoside (ONGP).
(§4) Data were normalized relative to the maximum response of the cells to the muscarinic agonist carbachol, and the following equation was fitted to the data: response=minimum+(maximum−minimum)/(1+([ligand]/EC50)) % Efficacy was defined as (maximum−minimum)/(maximum response of cells to carbachol). pEC50=−log (EC50). Where data gave a bell-shaped curve, “maximum” was defined as the highest observed response.

mice [4] = assay: MK-801 (dizocilpine)-induced hyperactivity in mice; format: in vivo; conditions: 10 mg/kg i.p., mice (FIG. 4)
Experimental: as §1, §2

mice [5] = assay: Amphetamine-induced hyperactivity in mice; format: in vivo; conditions: 3 and 10 mg/kg i.p., mice (FIG. 2)
Experimental: as §1, §2

[6] = target: T2, human dopamine D2 receptor (Homo sapiens, UniProt P14416); assay: [3H]-Spiperone radioligand binding to D2 receptor membranes; conditions: tSA cell membranes, 150 pM [3H]-Spiperone; read-out: D2 [3H]Spiperone pIC50 (converted)
T2 construct: expressed in transfected cells; host or cells: tSA cells
T2 sequence (P14416 1-414 isoform P14416-2): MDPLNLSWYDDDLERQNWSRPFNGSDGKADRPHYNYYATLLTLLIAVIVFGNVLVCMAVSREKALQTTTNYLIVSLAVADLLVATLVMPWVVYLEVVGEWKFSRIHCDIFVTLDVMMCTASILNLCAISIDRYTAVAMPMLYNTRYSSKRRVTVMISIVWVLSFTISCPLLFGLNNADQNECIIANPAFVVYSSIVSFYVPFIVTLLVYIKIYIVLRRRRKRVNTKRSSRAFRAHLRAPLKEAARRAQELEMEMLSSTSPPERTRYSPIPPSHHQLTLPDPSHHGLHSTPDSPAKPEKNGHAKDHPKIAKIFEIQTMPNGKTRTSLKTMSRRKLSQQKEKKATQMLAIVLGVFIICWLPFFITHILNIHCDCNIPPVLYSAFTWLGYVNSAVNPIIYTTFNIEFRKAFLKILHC
Experimental: The D2 dopamine receptor subtype was cloned substantially as described by Stormann, Gdula, Weiner and Brann, 1990 [Mol Pharmacol 37, 1-6]. Cell membranes expressing the D2 receptor were prepared by transfecting tSA cells (Chahine, M., Bennet, P. B., George, A. L., Horn, R. (1994) Pfluegers Arch. 427, 136-142) with 10 μg plasmid DNA encoding the human dopamine D2 receptor and 40 μl Superfect (Qiagen). The cells were harvested 48 hours and transfection and membranes were prepared by homogenizing the cells using a Polytron harvester in 20 mM Hepes, 10 mM EDTA, pH 7.4. The homogenate was centrifuged for 30 minutes at 37,000 g. The pellet was homogenized again in 60 ml 20 mM Hepes, 5 mM EDTA. The homogenate was centrifuged for 30 minutes at 37,000 g. The supernatant was discarded. The pellet was homogenized again in 10 ml 20 mM Hepes, 1 mM EDTA. The resultant membranes were frozen at −80° C.
The membranes were combined with 150 pM [^3H]-Spiperone (Amersham-Pharmacia, 107 Ci/mmol) and ligand concentrations between 1 nM and 10 μM, or haloperidol concentrations between 0.1 nM and 1 μM in 460 μl 20 mM Hepes, 1 mM EDTA, 0.1% (w/v) bovine serum albumin. Nonspecific binding was defined as binding in the presence of 1 μM haloperidol. The membranes were incubated for 4 hours at 37° C., and then filtered onto Packard GFB Filterplates using a Packard harvester. The membranes were dried and 50 μl Microscint (Packard) was added to each well. The amount of bound radioligand was quantified using a Packard Topcount scintillation counter.
Data were normalized relative to the maximum inhibition of [^3H]-Spiperone binding by 1 μM haloperidol, and the following equation was fitted to the data: % inhibition=minimum+(maximum−minimum)/(1+([ligand]/[IC50])) % inhibition was defined as (maximum−minimum)/(maximum response of cells to haloperidol). pIC50=−log (IC50). NT=not tested. Results

M1 muscarinic receptor = target: T3, M1 muscarinic receptor (Homo sapiens, UniProt P11229); assay: R-SAT functional assay, muscarinic M1 receptor; format: cell-based
T3 construct: expressed in transfected cells; host or cells: NIH-3T3 cells (ATCC CRL 1658)
T3 sequence (P11229 1-460): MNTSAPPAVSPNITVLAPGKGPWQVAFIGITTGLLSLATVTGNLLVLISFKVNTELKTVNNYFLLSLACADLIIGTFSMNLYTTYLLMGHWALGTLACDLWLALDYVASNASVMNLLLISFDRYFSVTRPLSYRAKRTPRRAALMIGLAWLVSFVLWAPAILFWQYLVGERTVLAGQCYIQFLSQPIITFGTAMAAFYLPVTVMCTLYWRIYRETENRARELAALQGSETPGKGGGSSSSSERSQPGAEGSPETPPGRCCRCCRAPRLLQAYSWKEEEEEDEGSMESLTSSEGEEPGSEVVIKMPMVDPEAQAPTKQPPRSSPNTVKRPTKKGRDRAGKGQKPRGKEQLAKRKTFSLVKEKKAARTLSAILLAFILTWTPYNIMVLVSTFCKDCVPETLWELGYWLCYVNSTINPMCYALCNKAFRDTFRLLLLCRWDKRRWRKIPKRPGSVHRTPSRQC
Experimental: as §3, §4

mice [7] = assay: Scopolamine-induced hyperactivity in mice; format: in vivo; conditions: 1, 3 and 10 mg/kg i.p., mice (FIG. 3)
Experimental: as §1, §2

SMILES: CCCCCCOc1nsnc1C1=CCCN(C)C1 [Xanomeline]
affinity for dopamine receptors (dopamine receptors): little or no affinity for dopamine receptors

SMILES: Nc1c2c(nc3ccccc13)CCCC2 [tacrine]
patients with elevated liver transaminases [1]: about 30%

SMILES: O=C(CCCN1CCC(O)(c2ccc(Cl)cc2)CC1)c1ccc(F)cc1 [haloperidol, reference compound]
induction of catalepsy (mice [2]; haloperidol 1 mg/kg i.p.): unlike haloperidol

binding efficacy for the M4 receptor subtype (M4 muscarinic receptor): high binding efficacy
Emax (M4 muscarinic receptor; NIH3T3, R-SAT, transfected NIH-3T3 cells, relative to maximum response to carbachol, read-out: M4 % Efficacy): 141%
EC50 (M4 muscarinic receptor; R-SAT, transfected NIH-3T3 cells, read-out: M4 pEC50 (converted)): 0.0316 µM
IC50 [6]: 0.794 µM
binding efficacy for the M1 receptor subtype (M1 muscarinic receptor): high binding efficacy
Emax (M1 muscarinic receptor; NIH3T3, R-SAT, transfected NIH-3T3 cells, relative to maximum response to carbachol, read-out: M1 % Efficacy): 115%
EC50 (M1 muscarinic receptor; R-SAT, transfected NIH-3T3 cells, read-out: M1 pEC50 (converted)): 0.0251 µM
SMILES: CCCCC1CCN(CCCn2c(=O)[nH]c3ccccc32)CC1 [Compound 61KS-19, 1-(3-[4-Butylpiperidino]propyl)-1,3-dihydrobenzimidazol-2-one]
spontaneous locomotor activity (mice [3]): reduction of spontaneous locomotor activity
MK-801-induced hyperactivity (mice [4]): reduction of MK-801-induced hyperactivity
amphetamine-induced hyperactivity (mice [5]): reduction of amphetamine-induced hyperactivity
induction of catalepsy (mice [2]; 10 mg/kg i.p.): failed to induce catalepsy
scopolamine-induced hyperactivity (mice [7]): reduction of scopolamine-induced hyperactivity
